The text below walks through data of patent publication US20200330409A1, “INJECTABLE COMPOSITION COMPRISING HYALURONIDASE FOR REMOVING LOCAL FAT” (priority 2019, published 2020).

This assay relates to local fat. Kind of assay: Clinical trials on hyaluronidase unit dose (efficacy threshold, diffusion range). Type of assay: in vivo. The settings on record: per injection. The protocol:
It was ascertained from clinical trials that at the hyaluronidase unit dose of 300 IU to 600 IU, it was possible to ensure adequate fat removing effect while minimizing side effects. It was also shown in clinical trials that at the above dose range, if the injectable composition is administered in a volume of 1 cc containing 300 IU of hyaluronidase, the diameter of the diffusion range is about 1 cm. Thus, with the hyaluronidase dose set at 300 IU to 600 IU, by injecting the composition at a volume of 0.5 to 2 cc depending on the hyaluronidase dose and with an interval of 0.5 to 1.5 cm between injection points, injection at narrow intervals is possible, and consequently, lipolysis occurs evenly. Furthermore, a lifting effect occurs concomitantly where skin resilience is improved by the promotion of collagen production through the stimulation of skin by the injection needle. […] Thus, by administering an injectable composition of the present disclosure having the above compositional ranges, the side effects from drug use are minimized while fat removal over a wide area can be carried out using minimal volumes. It was shown in clinical trials that at a hyaluronidase dose of 300 IU, the diameter of the diffusion range for the injectable composition is about 1 cm. […]

Take hyaluronidase: the “minimum amount of hyaluronidase exhibiting efficacy” value worked out at 300 IU.
